According to PubChem BioAssay AID1918952 (Molecular Pharmacology Branch, DTP, NCI, 2023):
Values joined by “and” are separate entries in the source; they are usually repeats but may differ in a detail not shown here. Equal values may be shown once.

Tested on: LG0703-F948-PDC complex spheroid viability
Experiment: Anticancer human tumor LG0703-F948-PDC patient-derived lung adenocarcinoma cell line growth inhibition
Settings: for viability, T/C: stronger effect = lower value
Summary of the method: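 Multicellular complex spheroids of tumor cells with human endothelial cells (HUVEC) and mesenchymal stem cells; the LSD1 inhibitor iadademstat was combined with standard-of-care or investigational agents. Top concentration at or near clinical Cmax, half-log dilutions; final DMSO ≤0.25%.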

[1] = curve of first compound, second compound 0.1 µM
[2] = curve of first compound, second compound 0.316 µM
[3] = curve of first compound, second compound 1 µM
[4] = curve of first compound, second compound 3.16 µM
[5] = curve of first compound, second compound 10 µM
[6] = second compound 0.1 µM, first compound 0.00316 µM
[7] = second compound 0.1 µM, first compound 0.01 µM
[8] = second compound 0.1 µM, first compound 0.0316 µM
[9] = second compound 0.1 µM, first compound 0.1 µM
[10] = second compound 0.316 µM, first compound 0.00316 µM
[11] = second compound 0.316 µM, first compound 0.01 µM
[12] = second compound 0.316 µM, first compound 0.0316 µM
[13] = second compound 0.316 µM, first compound 0.1 µM
[14] = second compound 1 µM, first compound 0.00316 µM
[15] = second compound 1 µM, first compound 0.01 µM
[16] = second compound 1 µM, first compound 0.0316 µM
[17] = second compound 1 µM, first compound 0.1 µM
[18] = second compound 3.16 µM, first compound 0.00316 µM
[19] = second compound 3.16 µM, first compound 0.01 µM
[20] = second compound 3.16 µM, first compound 0.0316 µM
[21] = second compound 3.16 µM, first compound 0.1 µM
[22] = second compound 10 µM, first compound 0.00316 µM
[23] = second compound 10 µM, first compound 0.01 µM
[24] = second compound 10 µM, first compound 0.0316 µM
[25] = second compound 10 µM, first compound 0.1 µM
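Note: spheroids exposed to agents for seven days before readout.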
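Throughout, for viability, T/C: 100% = DMSO vehicle control wells as normalization base.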

SMILES: CC(C)CC(NC(=O)C(Cc1ccccc1)NC(=O)c1cnccn1)B(O)O (configuration not stated) + NC1CC1c1ccc(-c2cccc(O)c2)cc1
- IC50 [1]: < 0.316 nM
- IC50 [2]: < 0.316 nM
- IC50 [3]: < 0.316 nM
- IC50 [4]: < 0.316 nM
- IC50 [5]: < 0.316 nM
- viability, T/C (second compound 0.1 µM, first compound 0.000316 µM): 6.46%
- viability, T/C (second compound 0.1 µM, first compound 0.001 µM): 0.12%
- viability, T/C [6]: 0.04%
- viability, T/C [7]: 0.06%
- viability, T/C [8]: 0.03%
- viability, T/C [9]: 1.07%
- viability, T/C (second compound 0.316 µM, first compound 0.000316 µM): 7.13%
- viability, T/C (second compound 0.316 µM, first compound 0.001 µM): 0.36%
- viability, T/C [10]: 0.54%
- viability, T/C [11]: 0.02%
- viability, T/C [12]: 0.31%
- viability, T/C [13]: 0.14%
- viability, T/C (second compound 1 µM, first compound 0.000316 µM): 4.36%
- viability, T/C (second compound 1 µM, first compound 0.001 µM): 0.11%
- viability, T/C [14]: 0.85%
- viability, T/C [15]: 0.07%
- viability, T/C [16]: 0.95%
- viability, T/C [17]: 0.99%
- viability, T/C (second compound 3.16 µM, first compound 0.000316 µM): 4.22%
- viability, T/C (second compound 3.16 µM, first compound 0.001 µM): 0.74%
- viability, T/C [18]: 0.05%
- viability, T/C [19]: 0.39%
- viability, T/C [20]: 0.09%
- viability, T/C [21]: 0.14%
- viability, T/C (second compound 10 µM, first compound 0.000316 µM): 1.18%
- viability, T/C (second compound 10 µM, first compound 0.001 µM): 1.11%
- viability, T/C [22]: 0.6%
- viability, T/C [23]: 1.43%
- viability, T/C [24]: 0.9%
- viability, T/C [25]: 0.98%

SMILES: Nc1ccccc1NC(=O)c1ccc(CNC(=O)OCc2cccnc2)cc1 + NC1CC1c1ccc(-c2cccc(O)c2)cc1
- IC50 [1]: 94.8 nM
- IC50 [2]: 90.7 nM
- IC50 [3]: 79.7 nM
- IC50 [4]: 99 nM
- IC50 [5]: 63 nM
- viability, T/C (second compound 0.1 µM, first compound 0.00949 µM): 96.4%
- viability, T/C (second compound 0.1 µM, first compound 0.03 µM): 85.7%
- viability, T/C (second compound 0.1 µM, first compound 0.0949 µM): 49.5%
- viability, T/C (second compound 0.1 µM, first compound 0.3 µM): 14.9%
- viability, T/C (second compound 0.1 µM, first compound 0.949 µM): 1.36%
- viability, T/C (second compound 0.1 µM, first compound 3 µM): 0.66%
- viability, T/C (second compound 0.316 µM, first compound 0.00949 µM): 86%
- viability, T/C (second compound 0.316 µM, first compound 0.03 µM): 74.1%
- viability, T/C (second compound 0.316 µM, first compound 0.0949 µM): 50.6%
- viability, T/C (second compound 0.316 µM, first compound 0.3 µM): 7.98%
- viability, T/C (second compound 0.316 µM, first compound 0.949 µM): 0.56%
- viability, T/C (second compound 0.316 µM, first compound 3 µM): 0.86%
- viability, T/C (second compound 1 µM, first compound 0.00949 µM): 80.9%
- viability, T/C (second compound 1 µM, first compound 0.03 µM): 76.7%
- viability, T/C (second compound 1 µM, first compound 0.0949 µM): 45.1%
- viability, T/C (second compound 1 µM, first compound 0.3 µM): 8.53%
- viability, T/C (second compound 1 µM, first compound 0.949 µM): 0.73%
- viability, T/C (second compound 1 µM, first compound 3 µM): 0.8%
- viability, T/C (second compound 3.16 µM, first compound 0.00949 µM): 87.2%
- viability, T/C (second compound 3.16 µM, first compound 0.03 µM): 80.4%
- viability, T/C (second compound 3.16 µM, first compound 0.0949 µM): 52.2%
- viability, T/C (second compound 3.16 µM, first compound 0.3 µM): 6.55%
- viability, T/C (second compound 3.16 µM, first compound 0.949 µM): 0.23%
- viability, T/C (second compound 3.16 µM, first compound 3 µM): 0.32%
- viability, T/C (second compound 10 µM, first compound 0.00949 µM): 95.3%
- viability, T/C (second compound 10 µM, first compound 0.03 µM): 68.7%
- viability, T/C (second compound 10 µM, first compound 0.0949 µM): 42.5%
- viability, T/C (second compound 10 µM, first compound 0.3 µM): 7.86%
- viability, T/C (second compound 10 µM, first compound 0.949 µM): 0.67%
- viability, T/C (second compound 10 µM, first compound 3 µM): 0.19%

SMILES: Nc1ncn(C2CC(O)C(CO)O2)c(=O)n1 (configuration not stated) + NC1CCC(NC2CC2c2ccccc2)CC1
- IC50 [1]: > 1000 nM
- IC50 [2]: > 1000 nM
- IC50 [3]: > 1000 nM
- IC50 [4]: > 1000 nM
- IC50 [5]: > 1000 nM
- viability, T/C [6]: 101%
- viability, T/C [7]: 102%
- viability, T/C [8]: 98%
- viability, T/C [9]: 96.3%
- viability, T/C (second compound 0.1 µM, first compound 0.316 µM): 95.4%
- viability, T/C (second compound 0.1 µM, first compound 1 µM): 81.9%
- viability, T/C [10]: 114%
- viability, T/C [11]: 118%
- viability, T/C [12]: 110%
- viability, T/C [13]: 98.7%
- viability, T/C (second compound 0.316 µM, first compound 0.316 µM): 102%
- viability, T/C (second compound 0.316 µM, first compound 1 µM): 98.5%
- viability, T/C [14]: 107%
- viability, T/C [15]: 126%
- viability, T/C [16]: 130%
- viability, T/C [17]: 106%
- viability, T/C (second compound 1 µM, first compound 0.316 µM): 97%
- viability, T/C (second compound 1 µM, first compound 1 µM): 112%
- viability, T/C [18]: 122%
- viability, T/C [19]: 121%
- viability, T/C [20]: 117%
- viability, T/C [21]: 111%
- viability, T/C (second compound 3.16 µM, first compound 0.316 µM): 131%
- viability, T/C (second compound 3.16 µM, first compound 1 µM): 101%
- viability, T/C [22]: 122%
- viability, T/C [23]: 141%
- viability, T/C [24]: 111%
- viability, T/C [25]: 114%
- viability, T/C (second compound 10 µM, first compound 0.316 µM): 113%
- viability, T/C (second compound 10 µM, first compound 1 µM): 122%

SMILES: Nc1ncn(C2CC(O)C(CO)O2)c(=O)n1 (configuration not stated)
- viability, T/C (compound 0.00316 µM): 85% and 110%
- viability, T/C (compound 0.01 µM): 101% and 104%
- viability, T/C (compound 0.0316 µM): 88.3% and 95.8%
- viability, T/C (compound 0.1 µM): 91.7% and 91.4%
- viability, T/C (compound 0.316 µM): 83.5% and 92.4%
- viability, T/C (compound 1 µM): 79.6% and 91.2%
- IC50 (curve of compound): > 1000 nM
